Measured values reported in ChEMBL document CHEMBL4325850 (Bioorg Med Chem Lett, 2018).
Active and inactive are the calls of the source. The calls are words filed in the database; no cut-off is given here.

Key:
Dipeptidyl peptidase 8 = Dipeptidyl peptidase 8 (Homo sapiens, UniProt Q6V1X1); experiment: Inhibition of human recombinant DPP-8 using H-Gly-Pro-AMC as substrate after 10 mins by fluorescence assay
Dipeptidyl peptidase 9 = Dipeptidyl peptidase 9 (Homo sapiens, UniProt Q86TI2); experiment: Inhibition of human recombinant DPP-9 using H-Gly-Pro-AMC as substrate after 10 mins by fluorescence assay
[1] = Induction of NO production in pH 7.4 PBS incubated for 1 to 14 hrs under dark conditions and measured every 1 hr for 2 hrs and then every 2 hrs for remaining time by Griess assay; type: functional
[2] = Inhibition of ADP-induced platelet aggregation in human platelet-rich plasma at 0.1 mM preincubated for 5 mins followed by ADP-stimulation and measured within 5 mins by Born's turbidimetric analysis relative to control; settings: read-out: INH

Dipeptidyl peptidase 9, sequence (Q86TI2 whole entry): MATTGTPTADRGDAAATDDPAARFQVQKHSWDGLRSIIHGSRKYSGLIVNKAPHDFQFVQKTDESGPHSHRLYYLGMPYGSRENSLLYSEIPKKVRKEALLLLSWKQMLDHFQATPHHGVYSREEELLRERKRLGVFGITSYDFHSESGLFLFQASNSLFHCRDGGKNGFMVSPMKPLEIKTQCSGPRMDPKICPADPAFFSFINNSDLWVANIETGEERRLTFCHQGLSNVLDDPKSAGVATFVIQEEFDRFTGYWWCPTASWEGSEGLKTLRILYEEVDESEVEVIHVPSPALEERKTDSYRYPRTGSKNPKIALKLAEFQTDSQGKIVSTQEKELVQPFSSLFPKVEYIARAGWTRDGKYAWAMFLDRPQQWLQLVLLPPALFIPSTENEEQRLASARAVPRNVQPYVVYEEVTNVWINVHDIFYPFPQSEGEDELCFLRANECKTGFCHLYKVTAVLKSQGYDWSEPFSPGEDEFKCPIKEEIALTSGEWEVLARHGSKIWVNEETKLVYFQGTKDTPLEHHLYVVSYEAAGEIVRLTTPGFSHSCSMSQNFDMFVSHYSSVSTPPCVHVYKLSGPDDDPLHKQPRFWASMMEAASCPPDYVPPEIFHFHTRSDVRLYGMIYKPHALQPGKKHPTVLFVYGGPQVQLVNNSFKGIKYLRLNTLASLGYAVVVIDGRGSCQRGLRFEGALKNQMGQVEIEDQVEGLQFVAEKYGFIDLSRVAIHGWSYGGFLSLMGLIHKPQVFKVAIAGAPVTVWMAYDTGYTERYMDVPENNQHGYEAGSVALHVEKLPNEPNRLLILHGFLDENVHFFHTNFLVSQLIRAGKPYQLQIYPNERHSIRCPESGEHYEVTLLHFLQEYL
Dipeptidyl peptidase 8, sequence (Q6V1X1 whole entry): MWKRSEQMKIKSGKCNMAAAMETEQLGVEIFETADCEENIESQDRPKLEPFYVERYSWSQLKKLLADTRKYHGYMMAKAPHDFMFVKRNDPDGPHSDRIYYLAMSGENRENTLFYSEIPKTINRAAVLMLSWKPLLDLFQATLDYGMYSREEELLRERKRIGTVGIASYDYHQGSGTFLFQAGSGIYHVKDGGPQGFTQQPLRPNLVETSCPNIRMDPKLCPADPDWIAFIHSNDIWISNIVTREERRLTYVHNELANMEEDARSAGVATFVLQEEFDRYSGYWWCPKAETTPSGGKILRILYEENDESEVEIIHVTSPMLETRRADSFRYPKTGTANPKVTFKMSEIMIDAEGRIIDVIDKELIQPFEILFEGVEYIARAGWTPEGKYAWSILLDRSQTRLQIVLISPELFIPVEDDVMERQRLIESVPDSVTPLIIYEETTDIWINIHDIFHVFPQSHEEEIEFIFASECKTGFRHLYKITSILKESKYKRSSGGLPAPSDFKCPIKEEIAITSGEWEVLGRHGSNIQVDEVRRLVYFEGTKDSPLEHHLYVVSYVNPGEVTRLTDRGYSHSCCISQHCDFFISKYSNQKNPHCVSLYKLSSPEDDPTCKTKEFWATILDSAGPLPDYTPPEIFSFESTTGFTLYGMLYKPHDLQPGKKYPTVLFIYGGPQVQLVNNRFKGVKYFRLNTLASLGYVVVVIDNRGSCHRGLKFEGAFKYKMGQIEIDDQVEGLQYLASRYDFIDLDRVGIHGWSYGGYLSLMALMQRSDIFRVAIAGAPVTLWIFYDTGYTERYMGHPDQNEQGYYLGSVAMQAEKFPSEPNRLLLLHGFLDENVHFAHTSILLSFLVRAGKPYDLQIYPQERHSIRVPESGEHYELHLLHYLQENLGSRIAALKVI

SMILES	IC50 (Dipeptidyl peptidase 8)	IC50 (Dipeptidyl peptidase 9)	Activity [1]	inhibition at 100 µM [2]
O=C(CCCCO[N+](=O)[O-])N[C@@H](CC(=O)N1CCn2c(nnc2C(F)(F)F)C1)Cc1cc(F)c(F)cc1F	> 100 µM	> 100 µM	Active	32.1%
O=C(CO)N[C@@H](CC(=O)N1CCn2c(nnc2C(F)(F)F)C1)Cc1cc(F)c(F)cc1F	> 100 µM	> 100 µM	–	3.22%
O=C(CCCO[N+](=O)[O-])N[C@@H](CC(=O)N1CCn2c(nnc2C(F)(F)F)C1)Cc1cc(F)c(F)cc1F	> 100 µM	> 100 µM	Active	27.6%
O=C(CCCO)N[C@@H](CC(=O)N1CCn2c(nnc2C(F)(F)F)C1)Cc1cc(F)c(F)cc1F	> 100 µM	> 100 µM	–	3.41%
CC(=O)Oc1ccccc1C(=O)O [ASPIRIN]	–	–	–	26%
O=C(CCCCO)N[C@@H](CC(=O)N1CCn2c(nnc2C(F)(F)F)C1)Cc1cc(F)c(F)cc1F	> 100 µM	> 100 µM	–	2.02%
O=C(CCCCCO)N[C@@H](CC(=O)N1CCn2c(nnc2C(F)(F)F)C1)Cc1cc(F)c(F)cc1F	> 100 µM	> 100 µM	–	3.63%
O=C(CCCCCO[N+](=O)[O-])N[C@@H](CC(=O)N1CCn2c(nnc2C(F)(F)F)C1)Cc1cc(F)c(F)cc1F	> 100 µM	> 100 µM	Active	40.2%
N[C@@H](CC(=O)N1CCn2c(nnc2C(F)(F)F)C1)Cc1cc(F)c(F)cc1F [SITAGLIPTIN]	–	–	–	4.24%
O=C(CO[N+](=O)[O-])N[C@@H](CC(=O)N1CCn2c(nnc2C(F)(F)F)C1)Cc1cc(F)c(F)cc1F	> 100 µM	> 100 µM	Active	22.4%
